Measurements taken from patent publication US8778310B2, “Fluorescent chlorotoxin conjugate and method for intra-operative visualization of cancer” (priority 2005, dated 2014).

Tests used:
9L glioma xenografts = assay: In vivo biophotonic imaging of mice with 9L glioma xenografts; design: species or system mouse; conditions: versus control mice without 1,10-phenanthroline
Protocol: All mouse studies were conducted in accordance with IACUC approved protocols. Subcutaneous xenografts were established in nu/nu (nude) mice using 9L, a rat gliosarcoma cell line (ATCC), and RH30, a rhabdomyosarcoma cell line. The xenografts were established using 1 million 9L or RH30 cells suspended in serum free media and matrigel at a 1:1 ratio. Intracranial xenografts were established by stereotaxic injection of 1 million 9L cells suspended in 10 μl PBS into the brain 3 mm lateral and posterior to the bregma. ND2:SmoA1 medulloblastoma mice, TRAMP prostate cancer mice and Apc^1638N intestinal adenoma and adenocarcinoma mice were as previously described. See, Fodde, R., et al., A targeted chain-termination mutation in the mouse Apc gene results in multiple intestinal tumors. Proc. Natl. Acad. Sci. U.S.A., 1994. 91(19): p. 8969-73; Greenberg, N. M., et al., Prostate cancer in a transgenic mouse. Proc. Natl. Acad. Sci. U.S.A., 1995. 92(8): p. […]
CTX:Cy5.5 (0.1-0.2 ml of 10-20 μM) was administered intravenously by tail vein injection. […] Relevant organs and tumors were dissected from some of the animals and fluorescence image were obtained immediately following dissection. In time course experiments, all images were captured using identical system settings and fluorescence emission was normalized to photons per second per centimeter squared per steradian (p/s/cm^2/sr).

9L glioma cells = assay: In vitro imaging of CTX:Cy5.5 binding to 9L glioma cells (NIR/confocal microscopy); type: cell-based, rat; conditions: pre-incubation with MMP-2 inhibitor
Protocol: 9L/lacZ gliosarcoma cells (ATCC, VA) and primary human foreskin fibroblast (HFF) were maintained in DMEM and RPMI medium both supplemented with 1% sodium pyruvate, 1% streptomycin/penicillin and 10% FBS (Hyclone, UT), respectively. 2×10^5 cells were seeded on sterile cover slips 36 hrs prior to labeling and confocal microscopy. Cells were cultured with 1 ml of CTX:CY5.5 conjugate (1 uM) for 2 hours in a 37° C. humidified incubator maintained at 5% CO2. Cover slips were washed 2 times in cell culture medium and 2 times in PBS buffer. Following this step, cell membranes were stained with 1 μM solution of FM 1-43FX (Molecular Probes, OR) for 20 min in dark at room temperature, washed 2 times in PBS and fixed in 4% paraformaldehyde. Cellular nuclei were stained with 4′,6-diamidino-2-phenylndole (DAPI, Sigma Aldrich, MO).
Confocal images were acquired using a DeltaVision SA3.1 Wide-Field Deconvolution Microscope (Applied Precision, WA) equipped with DAPI, TRITC, and Cy5 filters. Image processing was performed using SoftWoRX (Applied Precision, WA).
To determine whether CTX retained specific binding to glioma cells after conjugation to Cy5.5, we incubated the conjugate with 9L glioma cells and primary fibroblasts and evaluated binding by NIR microscopy. […]

[1] = test system: glioma and normal brain histologic sections; assay: Staining of histologic sections of glioma and normal brain; design: species or system human
[2] = previously reported; cited from earlier work
[3] = type: in vivo, mouse
Protocol: To further assess potential CTX toxicity at doses used for optical imaging, complete necropsy was performed on mice two weeks after exposure to CTX.

Molecule: c1cnc2c(c1)ccc1cccnc12 [1,10-phenanthroline]
- Specific binding of CTX:Cy5.5 in mice pre-treated with 1,10-phenanthroline (9L glioma xenografts): six-fold lower
- Binding of CTX:Cy5.5 to 9L glioma cells after pre-incubation with 1,10-phenanthroline (9L glioma cells): blocked

Molecule: Cy5.5
- staining of glioma section [1]: does not stain glioma

Molecule: chlorotoxin [CTX]
- locomotor activity in mice [2]: reduce locomotor activity
- laboratory evaluation (electrolytes, blood counts, liver and kidney function) ([3]; doses used for optical imaging): no alteration
- toxicity overall ([3]; doses used for optical imaging): no toxicity could be detected
- pathologic changes in organs (necropsy) ([3]; doses used for optical imaging, b143: two weeks after exposure): indistinguishable from control mice
- open field observation ([3]; injected mice versus control mice): indistinguishable from control mice
